Measured values: US20110046147A1, “17BETA-HYDROXYSTEROID DEHYDROGENASE TYPE 1 INHIBITORS FOR THE TREATMENT OF HORMONE-RELATED DISEASES” (UNIVERSITAT DES SAARLANDES, priority 2007, published 2011)
Like-named read-outs stand apart in the source and are kept apart here.

How the values were obtained:
[1] = biological target: T1, 17β-HSD1 (Homo sapiens, UniProt P14061); test: Inhibition of 17β-HSD1 (estrone to estradiol, radio-HPLC); assay type: biochemical; details: for IC50: human placenta enzyme, 500 nM estrone, NADH 500 μM; for Selectivity IC50 (17β-HSD2)/IC50 (17β-HSD1): ratio of IC50 values
T1 construct: In both cases, human placenta served as the enzyme source; from tissue; host or cells: human placenta
T1 sequence (P14061 1-328): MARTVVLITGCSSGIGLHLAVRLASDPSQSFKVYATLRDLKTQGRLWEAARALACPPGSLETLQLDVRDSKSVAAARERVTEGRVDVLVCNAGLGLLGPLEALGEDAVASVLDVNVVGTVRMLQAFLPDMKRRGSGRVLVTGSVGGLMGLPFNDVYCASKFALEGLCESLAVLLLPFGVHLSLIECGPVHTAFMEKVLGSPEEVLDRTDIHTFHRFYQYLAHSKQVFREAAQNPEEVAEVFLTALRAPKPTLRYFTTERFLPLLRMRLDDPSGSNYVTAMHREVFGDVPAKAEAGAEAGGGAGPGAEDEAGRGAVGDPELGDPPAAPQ
Method: In the 17β-HSD1 test, NADH is employed as a cosubstrate at a final concentration of 500 μM in order to avoid the product inhibition occurring with NADPH. The enzyme preparation is diluted with test buffer to such an extent that the control conversion is 10 to maximally 20% (about 1:650). As the substrate, estrone in a final concentration of 500 nM is used, of which 3 nM is tritiated. 2,4,6,7-[^3H]estrone is purchased from Perkin-Elmer, Boston. The inhibitor is added as a solution in DMSO (control: pure DMSO without inhibitor; the final concentration of DMSO in the assay is 1% in all cases).
(§1) After the reaction, the substrate and product are extracted by partitioning with ether, separated by chromatography (HPLC) and quantified by means of radiodetection.

[2] = biological target: T2, CYP2C19 (Homo sapiens, UniProt P33261); test: Inhibition of hepatic CYP enzymes: CYP2C19; assay type: biochemical
T2 construct: purchased Becton Dickinson GmbH (Heidelberg)
T2 sequence (P33261 whole entry): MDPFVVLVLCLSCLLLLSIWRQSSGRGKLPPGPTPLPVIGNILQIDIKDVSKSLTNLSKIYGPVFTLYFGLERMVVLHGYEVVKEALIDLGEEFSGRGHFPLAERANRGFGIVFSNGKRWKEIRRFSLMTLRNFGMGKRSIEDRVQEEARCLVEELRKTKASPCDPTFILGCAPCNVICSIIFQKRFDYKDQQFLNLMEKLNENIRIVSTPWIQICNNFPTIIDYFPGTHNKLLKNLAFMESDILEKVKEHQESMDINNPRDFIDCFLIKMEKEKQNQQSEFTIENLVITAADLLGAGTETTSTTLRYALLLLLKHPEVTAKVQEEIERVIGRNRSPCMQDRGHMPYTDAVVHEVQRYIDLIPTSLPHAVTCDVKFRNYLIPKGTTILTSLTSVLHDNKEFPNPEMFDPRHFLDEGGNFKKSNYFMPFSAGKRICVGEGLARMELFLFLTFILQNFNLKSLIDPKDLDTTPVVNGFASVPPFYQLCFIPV
Source text: (§2) Drug interactions (inhibition of hepatic CYP enzymes): The inhibition of six human hepatic cytochrome P450 enzymes by selected compounds was examined by means of the kit supplied by Becton Dickinson GmbH (Heidelberg).

[3] = biological target: T3, CYP1A2 (Homo sapiens, UniProt P05177); test: Inhibition of hepatic CYP enzymes: CYP1A2; assay type: biochemical; details: read-out: CYP1A2 IC50 (mean ± SD)
T3 construct: purchased Becton Dickinson GmbH (Heidelberg)
T3 sequence (P05177 1-516): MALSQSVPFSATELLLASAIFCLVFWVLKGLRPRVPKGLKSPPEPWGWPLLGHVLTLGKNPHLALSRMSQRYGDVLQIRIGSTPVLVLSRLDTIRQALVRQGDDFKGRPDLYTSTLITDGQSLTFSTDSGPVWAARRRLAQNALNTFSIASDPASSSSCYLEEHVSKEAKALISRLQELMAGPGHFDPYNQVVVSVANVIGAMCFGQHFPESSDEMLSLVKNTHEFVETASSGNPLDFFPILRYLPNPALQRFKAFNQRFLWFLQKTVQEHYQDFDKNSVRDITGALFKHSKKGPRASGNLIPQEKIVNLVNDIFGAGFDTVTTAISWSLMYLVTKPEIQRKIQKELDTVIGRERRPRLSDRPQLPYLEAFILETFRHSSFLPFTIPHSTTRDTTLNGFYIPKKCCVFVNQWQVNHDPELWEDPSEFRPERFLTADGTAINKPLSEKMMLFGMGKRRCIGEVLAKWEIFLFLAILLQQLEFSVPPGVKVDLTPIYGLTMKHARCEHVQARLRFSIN
Source text: as §2

[4] = biological target: T4, CYP2D6 (Homo sapiens, UniProt P10635); test: Inhibition of hepatic CYP enzymes: CYP2D6; assay type: biochemical; details: read-out: CYP2D6 IC50 (mean ± SD)
T4 construct: purchased Becton Dickinson GmbH (Heidelberg)
T4 sequence (P10635 whole entry): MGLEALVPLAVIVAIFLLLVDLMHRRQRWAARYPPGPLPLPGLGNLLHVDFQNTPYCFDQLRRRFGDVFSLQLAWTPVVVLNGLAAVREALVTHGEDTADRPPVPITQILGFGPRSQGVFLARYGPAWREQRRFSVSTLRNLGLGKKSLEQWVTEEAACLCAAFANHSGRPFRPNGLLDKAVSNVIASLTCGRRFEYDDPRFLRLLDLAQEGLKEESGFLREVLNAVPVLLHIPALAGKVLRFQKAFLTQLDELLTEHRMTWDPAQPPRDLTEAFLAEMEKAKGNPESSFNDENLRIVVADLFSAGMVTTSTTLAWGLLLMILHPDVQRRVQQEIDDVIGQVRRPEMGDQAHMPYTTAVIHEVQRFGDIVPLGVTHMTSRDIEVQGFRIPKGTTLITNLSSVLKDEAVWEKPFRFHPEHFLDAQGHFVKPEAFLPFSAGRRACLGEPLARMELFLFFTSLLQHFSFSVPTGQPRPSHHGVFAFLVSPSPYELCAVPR
Source text: as §2

[5] = biological target: T5, CYP2B6 (Homo sapiens, UniProt P20813); test: Inhibition of hepatic CYP enzymes: CYP2B6; assay type: biochemical; details: read-out: CYP2B6 IC50 (mean ± SD)
T5 construct: purchased Becton Dickinson GmbH (Heidelberg)
T5 sequence (P20813 1-491): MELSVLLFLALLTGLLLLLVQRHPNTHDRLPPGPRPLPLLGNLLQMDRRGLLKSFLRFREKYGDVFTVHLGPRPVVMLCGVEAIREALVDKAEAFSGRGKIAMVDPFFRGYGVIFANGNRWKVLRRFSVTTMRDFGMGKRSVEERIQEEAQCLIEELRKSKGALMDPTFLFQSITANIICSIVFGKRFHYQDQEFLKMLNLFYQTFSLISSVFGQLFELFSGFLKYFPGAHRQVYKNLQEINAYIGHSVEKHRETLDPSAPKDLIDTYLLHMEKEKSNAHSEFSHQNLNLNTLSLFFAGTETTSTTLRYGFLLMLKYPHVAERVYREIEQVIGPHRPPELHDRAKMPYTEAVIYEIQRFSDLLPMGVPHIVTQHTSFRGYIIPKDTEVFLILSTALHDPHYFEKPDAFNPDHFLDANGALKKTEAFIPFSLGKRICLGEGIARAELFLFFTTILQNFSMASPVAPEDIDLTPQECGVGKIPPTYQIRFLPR
Source text: as §2

[6] = biological target: T6, 17β-HSD2 (Homo sapiens, UniProt P37059); test: Inhibition of 17β-HSD2 (estradiol to estrone, radio-HPLC); assay type: biochemical; details: human placenta microsome fraction, 500 nM estradiol, NAD+ 1500 μM
T6 construct: from tissue; host or cells: human placenta, microsome fraction
T6 sequence (P37059 1-387): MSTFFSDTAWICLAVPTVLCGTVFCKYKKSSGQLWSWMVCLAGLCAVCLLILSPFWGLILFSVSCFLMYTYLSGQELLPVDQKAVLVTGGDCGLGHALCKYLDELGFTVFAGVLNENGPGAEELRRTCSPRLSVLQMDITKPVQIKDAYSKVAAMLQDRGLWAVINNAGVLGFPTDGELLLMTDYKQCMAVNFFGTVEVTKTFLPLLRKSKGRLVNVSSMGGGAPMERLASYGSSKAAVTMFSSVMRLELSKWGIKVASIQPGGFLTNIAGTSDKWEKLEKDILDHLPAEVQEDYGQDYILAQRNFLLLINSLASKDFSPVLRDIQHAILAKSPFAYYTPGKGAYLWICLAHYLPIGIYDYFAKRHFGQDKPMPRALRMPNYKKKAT
Method: Determination of the inhibitory activity of the potential inhibitors: Inhibition of 17β-HSD1 and 17β-HSD2: In both cases, human placenta served as the enzyme source (Lin, S.-X. et al., J. Biol. Chem., 267: 16182-16187 (1992)).
In the 17β-HSD2 test, the natural cosubstrate NAD^+ is employed at a final concentration of 1500 μM. The microsome fraction is diluted in test buffer, so that a control conversion of 20 to 30% results (about 1:350). As the substrate, estradiol in a final concentration of 500 nM is used, of which 3 nM is tritiated. 2,4,6,7-[^3H]estradiol is also purchased from Perkin-Elmer, Boston. The inhibitor is added as a solution in DMSO (control: pure DMSO without inhibitor; the final concentration of DMSO in the assay is […]). After the addition of the substrate, incubation is performed at 37° C. for 20 minutes. The reaction is quenched by the addition of HgCl2 (final concentration of HgCl2: 0.166 mM).
as §1

[7] = biological target: T7, estrogen receptor α (Homo sapiens, UniProt P03372); test: Affinity for the estrogen receptor α (RBA); assay type: binding; details: data not stated
T7 sequence (P03372 1-595): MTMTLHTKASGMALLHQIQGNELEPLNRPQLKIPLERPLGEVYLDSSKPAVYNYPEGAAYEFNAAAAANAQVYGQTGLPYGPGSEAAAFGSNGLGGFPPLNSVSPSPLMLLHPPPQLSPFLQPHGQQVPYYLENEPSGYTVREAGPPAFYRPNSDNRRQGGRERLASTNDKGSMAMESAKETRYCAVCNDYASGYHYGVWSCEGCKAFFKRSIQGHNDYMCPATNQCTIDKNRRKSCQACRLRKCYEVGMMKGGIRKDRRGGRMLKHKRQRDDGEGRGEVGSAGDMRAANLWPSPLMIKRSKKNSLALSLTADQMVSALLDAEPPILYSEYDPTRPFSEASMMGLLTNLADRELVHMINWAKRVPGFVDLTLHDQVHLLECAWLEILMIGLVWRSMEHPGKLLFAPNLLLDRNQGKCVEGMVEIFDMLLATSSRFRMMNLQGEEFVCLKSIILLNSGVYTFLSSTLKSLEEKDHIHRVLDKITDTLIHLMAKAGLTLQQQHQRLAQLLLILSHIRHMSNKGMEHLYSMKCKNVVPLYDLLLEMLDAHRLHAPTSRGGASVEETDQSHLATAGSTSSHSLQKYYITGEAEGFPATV
Method: Slight changes were made: The respective inhibitor was incubated at RT for 2 h with shaking.
The receptor affinities are established as RBA (relative binding affinity) values. The RBA value of the reference estradiol is set to 100%.

[8] = CaCo2 transport assay; assay type: in vitro ADME; details: human, Caco-2; 50 μM in donor compartment; read-out: Papp [cm/sec ± rel. SD]
Method: (§3) Performance of selected compounds in a CaCo2 assay: Caco-2 cell culture and transport experiments were performed according to Yee (Yee, S., Pharm. Res., 14(6): 763-766 (1997)), but slight modifications were introduced. The cultivation times were reduced from 21 to 10 days by increasing the sowing density from 6.3·10^4 to 1.65·10^5 cells per well. […] The initial concentration of the compounds in the donor compartment was 50 μM (in buffer with 1% ethanol or DMSO). Samples were taken from the acceptor side after 60, 120 and 180 min and from the donor side after 0 and 180 min. For glycoprotein P (P-gp) studies, bidirectional experiments were performed. The absorptive and secretory permeabilities (Papp (a-b) and Papp (b-a)) were determined. Thus, erythromycin was used as a substrate, and verapamil was used as an inhibitor of P-gp. Each experiment was performed in triplicate. The integrity of the monolayer was determined by means of TEER (transepithelial electric resistance) and the permeability for each assay was determined using Lucifer Yellow. All samples of the CaCo-2 transport experiments were analyzed by means of LC/MS/MS after dilution with buffer (1:1 with 2% acetic acid). The apparent permeability coefficient (Papp) was calculated by means of the formula given below, where dQ/dt represents the recovery rate of the mass in the acceptor compartment, A represents the surface area of the transwell membrane, and c0 represents the initial concentration in the donor compartment.

[9] = test system: CaCo-2 cells; test: CaCo2 transport assay; assay type: in vitro ADME; details: 50 μM in donor compartment
Method: as §3

[10] = In vivo pharmacokinetics (rat), peroral cassette dosing; design: species or system Wistar rats; details: 10 mg/kg
Method: In vivo pharmacokinetics (rat): The compounds 29, 45, 47 and 59 and a reference compound were administered to adult male Wistar rats (n=4) perorally in a cassette dosing method (vehicle: Labrasol/water 1/1). The plasma profiles were established by means of LC-MS/MS.
• Cmax obs highest measured concentration • Cz last analytically quantifiable concentration • tmax obs time to reach the highest measured concentration • tz time to withdrawal of the last sample with analytically quantifiable concentration • t1/2z half life (determined from the slope of the declining portion of the concentration vs. time curve • AUC0-tz area below the concentration vs. time curve up to time tZ • AUC0-∞ area below the concentration vs. time curve, extrapolated to ∞

## Oc1cccc(-c2cnc(-c3cccc(O)c3)s2)c1 [Compound 22, 3,3′-(1,3-thiazole-2,5-diyl)diphenol]
[1]
  IC50: 280 nM
[2]; read-out: CYP2C19 IC50 (mean ± SD)
  IC50: 4.57 ± 0.05 µM
[3]
  IC50: 4.92 ± 0.09 µM
[4]
  IC50: 7.76 ± 0.03 µM
[5]
  IC50: 14.2 ± 0.44 µM
[6]
  IC50: 2500 nM

## Oc1ccc(-c2csc(-c3cccc(O)c3)n2)cc1 [Compound 23, 3-[4-(4-Hydroxyphenyl)-1,3-thiazole-2-yl]phenol]
[1]
  IC50: 320 nM
[7]
  affinity for the estrogen receptor (in words): negligible

## Oc1ccc(-c2nc(-c3cccc(O)c3)cs2)cc1 [Compound 24, 3-[2-(4-Hydroxyphenyl)-1,3-thiazole-4-yl]phenol]
[1]; read-out: inhibition of 17β-HSD1 at 1 μM
  inhibition at 1 µM: 49%
[7]
  affinity for the estrogen receptor (in words): negligible

## Oc1cccc(-c2csc(-c3cccc(O)c3)n2)c1 [Compound 26, 3,3′-(1,3-Thiazole-2,4-diyl)diphenol]
[1]
  IC50: 410 nM
  Selectivity IC50 (17β-HSD2)/IC50 (17β-HSD1): 5.4
[7]
  affinity for the estrogen receptor (in words): negligible
[6]
  IC50: 2220 nM

## Oc1ccc(-c2ccc(-c3cccc(O)c3)s2)cc1 [Compound 29, 3-[5-(4-Hydroxyphenyl)-2-thienyl]phenol]
[1]
  IC50: 60 nM
  Selectivity IC50 (17β-HSD2)/IC50 (17β-HSD1): 33
[8]
  Papp at 180 min, 50 μM: 22 ×10⁻⁶ cm/s
[9]
  Permeability (class in words): high
[6]
  IC50: 1950 nM
[10]
  tz (time of last sample with quantifiable concentration): 10.0 h
[10]; plasma
  Cz (last analytically quantifiable concentration): 6.56 ng/mL
[10]; male, Wistar, plasma, po
  AUC(0-t): 99.2 ng·h/mL
[10]; male, Wistar, plasma, po, extrapolated to ∞
  AUC(0-inf): 99.2 ng·h/mL
[10]; male, Wistar, plasma, po, read-out: t1/2z (half life) (converted)
  half-life: 90 min
[10]; male, Wistar, plasma, po, read-out: tmax obs (time to reach the highest measured concentration)
  Tmax: 8 h
[10]; male, Wistar, po, plasma, read-out: Cmax obs (highest measured concentration)
  Cmax: 7.8 ng/mL

## Oc1ccc(-c2cc(-c3cccc(O)c3)cs2)cc1 [Compound 32, 3-[5-(4-Hydroxyphenyl)-3-thienyl]phenol]
[1]
  IC50: 130 nM
[2]
  IC50: 4.43 ± 0.17 µM
[3]
  IC50: 8.68 ± 0.29 µM
[9]
  Permeability (class in words): high
[6]
  IC50: 1700 nM

## Oc1ccc(-c2cccc(-c3ccc(O)cc3)c2)cc1 [Compound 41, [1,1′;3′,1″]Terphenyl-4,4″-diol]
[1]
  IC50: 1600 nM
  Selectivity IC50 (17β-HSD2)/IC50 (17β-HSD1): 1.4
[8]
  Papp at 180 min, 50 μM: 12.6 ×10⁻⁶ cm/s
[9]
  Permeability (class in words): high
[6]
  IC50: 2200 nM
